This note sets out measurements from ChEMBL document CHEMBL1201862, “PubChem BioAssay data set” (2004).

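How tested: cells in 96-well plates exposed to compound for 48 hours at five concentrations. GI50 = concentration required for 50% inhibition of growth.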 Calls of active or inactive are those of the source. No stated cut-off is given here; in the data, active = GI50 up to about 1.1 µM and inactive = higher.

Test systems include A549; U-251; SR; HL-60; LOX IMVI; SF-539; Malme-3M; SF-295; CAKI-1; HT-29; DMS-273; TK-10; SNB-78; KM12; ACHN; IGROV-1.
Common to all, as to test: inhibition of tumour cell growth, NCI panel, 48 h

Regarding `Cc1cc(C)c(C(=O)O)c(SSc2cc(C)cc(C)c2C(=O)O)c1`, the GI50 in the test with A549, with U-251, in the test with SR, in the test with HL-60, in the test with LOX IMVI and in the test with SF-539 was > 100 µM (inactive) each time. Moreover, the GI50 in the test on Malme-3M, with SF-295, with CAKI-1, in the test with HT-29, in the test on DMS-273 and in the test on TK-10 was > 100 µM (inactive) throughout. Further, the GI50 in the test on SNB-78, in the test with KM12 and with ACHN was > 100 µM (inactive) each time.

For `C=C1C(OC(=O)/C=C/c2ccccc2)CC(OC(C)=O)C2(C)C1CC1CC(OC(C)=O)C(C)=C(C(OC(C)=O)C2OC(C)=O)C1(C)C` (stereo not given), the GI50 in the test on A549 was 5.45 µM (inactive); with U-251, > 100 µM (inactive); in the test with SR it was 3.97 µM (inactive); in the test with HL-60, 2.07 µM (inactive); in the test with LOX IMVI, > 100 µM (inactive); with SF-539, > 100 µM (inactive). For the same molecule, the GI50 in the test on Malme-3M was > 100 µM (inactive); in the test on SF-295, > 100 µM (inactive); in the test with CAKI-1, > 100 µM (inactive); with IGROV-1 it was > 100 µM (inactive); in the test with HT-29 it was > 100 µM (inactive); with DMS-273, 4.2 µM (inactive). For the same molecule, the GI50 was > 100 µM (inactive) in the test on TK-10, > 100 µM (inactive) with SNB-78 and 8.59 µM (inactive) in the test on KM12.

In the case of `COC(=O)[C@@H]1CCCCC[C@H]2C(CO)=C(C)C(=O)C12` (stereo not given in full), the GI50 with A549, in the test on U-251, in the test on SR, in the test with HL-60, in the test on SF-539 and in the test with Malme-3M was > 100 µM (inactive) each time. For the same molecule, the GI50 with SF-295, in the test on CAKI-1, in the test with IGROV-1, with HT-29, in the test with DMS-273 and with TK-10 was > 100 µM (inactive) throughout. For the same molecule, the GI50 in the test with SNB-78, in the test with KM12 and in the test on ACHN was > 100 µM (inactive) throughout.

On to `O=C(CC1S/C(=N\c2ccccc2Cl)NC1=O)Nc1ccc(Cl)cc1` (stereo not given), for which the GI50 in the test on A549 is > 100 µM (inactive); in the test on U-251 it was > 100 µM (inactive); in the test on SR, 31.3 µM (inactive); in the test on HL-60, 94.4 µM (inactive); in the test on LOX IMVI, 99.3 µM (inactive); in the test on SF-539, > 100 µM (inactive). The GI50 was > 100 µM (inactive) in the test on Malme-3M; > 100 µM (inactive) in the test on SF-295; > 100 µM (inactive) in the test with CAKI-1; > 100 µM (inactive) with IGROV-1; 64 µM (inactive) in the test with HT-29; > 100 µM (inactive) in the test on DMS-273. In addition, the GI50 with TK-10, with SNB-78, in the test on KM12 and in the test with ACHN was > 100 µM (inactive) in each case.

Consider `Cc1c(-c2cc(-c3ccccc3)n[nH]c2=O)c2ccccc2n1C`, for which the GI50 in the test on A549, with U-251, with SR, with HL-60, with SF-539 and in the test on Malme-3M was > 100 µM (inactive) in each case. Further, the GI50 in the test on SF-295, in the test on CAKI-1, in the test with IGROV-1, in the test on HT-29, in the test on DMS-273 and in the test with TK-10 was > 100 µM (inactive) in each case. The GI50 in the test on SNB-78, with KM12 and in the test with ACHN was > 100 µM (inactive) throughout.

`COC(=O)C1CC(=O)CCC1c1ccccc1` (stereo not given): the GI50 with A549, in the test with U-251, with SR, with HL-60, in the test on LOX IMVI and with SF-539 was > 100 µM (inactive) each time. For the same molecule, the GI50 with Malme-3M, in the test on SF-295, with CAKI-1, with IGROV-1, in the test on HT-29 and in the test on DMS-273 was > 100 µM (inactive) in each case. In addition, the GI50 in the test on TK-10, in the test on SNB-78, with KM12 and in the test on ACHN was > 100 µM (inactive) in each case.

For `NCCCNCCCCN(CCCN)/[N+]([O-])=N\O`, the GI50 with A549 was > 100 µM (inactive); in the test with SR, 28.6 µM (inactive); in the test with HL-60, > 100 µM (inactive); in the test with SF-539, > 100 µM (inactive); with Malme-3M, > 100 µM (inactive); in the test on SF-295, > 100 µM (inactive). Further, the GI50 with CAKI-1, in the test on IGROV-1, in the test with HT-29, in the test on DMS-273, with SNB-78 and in the test with KM12 was > 100 µM (inactive) throughout. Besides, in the test on ACHN, the GI50 was > 100 µM (inactive).

Take `CN(C)CCS/C(=N\c1ccccc1)n1cccc1`: the GI50 in the test with A549 is > 100 µM (inactive); in the test with U-251, > 100 µM (inactive); in the test on SR, 33.2 µM (inactive); with HL-60, 32.7 µM (inactive); in the test with LOX IMVI it was 43.5 µM (inactive); in the test with SF-539 it was 66.5 µM (inactive). Besides, the GI50 is 89.5 µM (inactive) in the test on Malme-3M; > 100 µM (inactive) in the test on SF-295; > 100 µM (inactive) with CAKI-1; > 100 µM (inactive) with IGROV-1; 41.5 µM (inactive) with HT-29; 62.5 µM (inactive) in the test with DMS-273. Moreover, the GI50 in the test on TK-10 was > 100 µM (inactive); with SNB-78, 22.2 µM (inactive); with KM12 it was 82.8 µM (inactive); in the test on ACHN, 78.5 µM (inactive).

On to `C[N+](C)(C)CC1CCC/C1=N/O` (stereo not given), for which the GI50 in the test with A549 was > 100 µM (inactive); in the test with U-251, 48.4 µM (inactive); with SR, 27.7 µM (inactive); in the test with HL-60 it was 20.1 µM (inactive); in the test on LOX IMVI it was 20.6 µM (inactive); in the test on SF-539, > 100 µM (inactive). The GI50 in the test on Malme-3M was > 100 µM (inactive); with SF-295, > 100 µM (inactive); in the test on IGROV-1, > 100 µM (inactive); with HT-29 it was 39.3 µM (inactive); in the test on DMS-273, 60.7 µM (inactive); in the test on TK-10, > 100 µM (inactive). Further, the GI50 in the test with SNB-78, in the test with KM12 and in the test with ACHN was > 100 µM (inactive) each time.

`CC(=O)O[C@@H]1C2C(=O)OC(=O)C2C2CCC[C@]23O[C@H]13` (stereo not given in full): the GI50 in the test with A549, in the test with U-251, in the test with SR, in the test with HL-60, with SF-539 and in the test with Malme-3M was > 100 µM (inactive) each time. Besides, the GI50 in the test on CAKI-1, in the test with IGROV-1, in the test on DMS-273, with TK-10, with SNB-78 and in the test on KM12 was > 100 µM (inactive) throughout. For the same molecule, the GI50 in the test on ACHN was > 100 µM (inactive).

Consider `Clc1cc(Cl)c2ns[s+]c2c1Cl`, for which the GI50 in the test with A549, with U-251, with SR, in the test with HL-60, in the test on LOX IMVI and in the test with SF-539 was > 100 µM (inactive) each time. Also, the GI50 is 37.8 µM (inactive) with Malme-3M; > 100 µM (inactive) in the test on SF-295; > 100 µM (inactive) in the test on CAKI-1; > 100 µM (inactive) with IGROV-1; > 100 µM (inactive) in the test with HT-29; > 100 µM (inactive) in the test on DMS-273. Besides, the GI50 in the test on TK-10 is > 100 µM (inactive); with SNB-78 it was 0.158 µM (active); in the test with KM12, > 100 µM (inactive); in the test with ACHN it was > 100 µM (inactive).

As to `ClCCC[Si]12OCCN(CCO1)CCO2`, the GI50 with A549, in the test with U-251, in the test on SR, in the test with HL-60, in the test with SF-539 and with Malme-3M was > 100 µM (inactive) in each case. Further, the GI50 in the test with SF-295, in the test with CAKI-1, in the test with IGROV-1, with HT-29, in the test with DMS-273 and in the test on TK-10 was > 100 µM (inactive) throughout. Moreover, the GI50 in the test with SNB-78, in the test with KM12 and with ACHN was > 100 µM (inactive) in each case.

As for `C/C(CN1C(=O)c2ccccc2C1=O)=N\NS(=O)(=O)c1cccc(C(=O)O)c1`, the GI50 in the test with A549, with U-251, in the test on SR, in the test on HL-60, in the test with SF-539 and with Malme-3M was > 100 µM (inactive) in each case. Further, the GI50 in the test with SF-295, in the test on CAKI-1, with IGROV-1, with HT-29, in the test on DMS-273 and in the test on TK-10 was > 100 µM (inactive) throughout. In addition, the GI50 in the test on SNB-78, in the test on KM12 and in the test with ACHN was > 100 µM (inactive) throughout.
